SMILES strings stand for the structures. Calls of active or inactive are those of the source. The rule behind the calls is not given here.

The record followed here is ChEMBL document CHEMBL3751695, “Cationic lipid-conjugated hydrocortisone as selective antitumor agent” (Eur J Med Chem, 2016).

Experiment [1] has as its system A549. In words: Cytotoxicity against human A549 cells at 5 and 10 uM after 72 hrs cells pretreated with 50 uM of RU486 for 4 hrs by MTT assay. Format: functional, cell-based.
The subject of experiment [2] is B16-F10. The experiment in a line: Induction of apoptosis in mouse B16F10 cells assessed as increase in cleaved caspase 3 level at 20 uM after 36 hrs by western blot analysis. Type of experiment: functional, cell-based. For orientation: In western blotting, separated proteins are transferred to a membrane and probed.
For experiment [3], the system named is B16-F10. In words: Induction of apoptosis in mouse B16F10 cells assessed as increase in p53 expression at 20 uM after 36 hrs by […]. Format: functional, cell-based. For orientation: A flow cytometer gives signals particle by particle.
A short description of experiment [4]: Cell cycle arrest in mouse B16F10 cells assessed as accumulation at G1 phase at 20 uM after 24 hrs by propidium iodide staining based flow cytometry (reference value: 38.8 %). As to conditions: B16-F10. Type of experiment: functional.
A short description of experiment [5]: Cell cycle arrest in mouse B16F10 cells assessed as accumulation at S phase at 20 uM after 24 hrs by propidium iodide staining based flow cytometry (reference value: 5.4 %). The settings on record: B16-F10. Format: functional.
Experiment [6] in a line: Cell cycle arrest in mouse B16F10 cells assessed as accumulation at G2/M phase at 20 uM after 24 hrs by propidium iodide staining based flow cytometry (reference value: 15.2 %). Format: functional. The settings on record: B16-F10.
The subject of experiment [7] is B16-F10. The experiment in a line: Antitumor activity against mouse B16F10 cells xenografted in C57BL/J mouse assessed as inhibition of tumor growth at 10 mg/kg, ip. Format: functional, organism-based.
Experiment [8] deals with B16-F10. In words: Antitumor activity in mouse B16F10 cells xenografted in C57BL/J mouse assessed as induction of apoptosis in tumor vasculature at 10 mg/kg, ip by TUNEL assay. Format: functional, organism-based.
Experiment [9] has as its system B16-F10. The experiment in a line: Antitumor activity in mouse B16F10 cells xenografted in C57BL/J mouse assessed as increase of apoptotic protein Bax level in tumor lysates at 10 mg/kg, ip by western blot analysis. Format: functional, organism-based. The settings on record: Neoplasm, Lysate.
Experiment [10] has as its system B16-F10. In words: Antitumor activity in mouse B16F10 cells xenografted in C57BL/J mouse assessed as decrease in VEGFR2 expression in tumor at 10 mg/kg, ip by immunohistochemical analysis. Type of experiment: functional, organism-based.
Experiment [11] concerns B16-F10. In words: Inhibition of cell migration in mouse B16F10 cells at 20 uM after 36 hrs by wound healing assay. Type of experiment: functional, cell-based.
The test system of experiment [12] is B16-F10. In words: Induction of apoptosis in mouse B16F10 cells assessed as increase in ratio of Bax/Bcl2 level at 20 uM after 36 hrs by western blot analysis (reference value: 0.2). Type of experiment: functional.
In experiment [13] the test system is B16-F10. The experiment in a line: Antitumor activity in mouse B16F10 cells xenografted in C57BL/J mouse assessed as increase of apoptotic protein p53 level in tumor lysates at 10 mg/kg, ip by western blot analysis. As to conditions: Neoplasm, Lysate. Type of experiment: functional, organism-based.
The subject of the next experiment is MCF7. The experiment in a line: Cytotoxicity against human MCF7 cells after 72 hrs by MTT assay. As to conditions: MCF7, 72 h. Type of experiment: functional, cell-based. On the technique in general: Tetrazolium assays rely on reduction of a dye to a coloured formazan, in cell work by metabolically active cells.
The nature of experiment [14]: Cytotoxicity against human SKOV3 cells after 72 hrs by MTT assay. Format: functional, cell-based. The settings on record: SK-OV-3, 72 h.
The test system of the next experiment is HeLa. The experiment in a line: Cytotoxicity against human HeLa cells after 72 hrs by MTT assay. Type of experiment: functional, cell-based.
The next experiment deals with RAW264.7. The experiment in a line: Cytotoxicity against mouse RAW264.7 cells after 72 hrs by MTT assay. Type of experiment: cell-based. The settings on record: RAW264.7, 72 h.
The nature of experiment [15]: Cytotoxicity against mouse NIH/3T3 cells after 72 hrs by MTT assay. Type of experiment: cell-based. As to conditions: NIH3T3, 72 h.
Experiment [16] deals with A549. The experiment in a line: Induction of apoptosis in human A549 cells assessed as early apoptotic cells at 20 uM after 24 hrs by annexin-V-FITC/propidium iodide staining based flow cytometry (reference value: 1.41 %). Format: functional.
Experiment [17] concerns A549. In words: Induction of apoptosis in human A549 cells assessed as late apoptotic cells at 20 uM after 24 hrs by annexin-V-FITC/propidium iodide staining based flow cytometry (reference value: 7.40 %). Format: functional.
The subject of experiment [18] is B16-F10. The experiment in a line: Induction of apoptosis in mouse B16F10 cells assessed as late apoptotic cells at 20 uM after 24 hrs by annexin-V-FITC/propidium iodide staining based flow cytometry (reference value: 4.47 %). Type of experiment: functional.
Experiment [19] deals with B16-F10. In words: Induction of apoptosis in mouse B16F10 cells assessed as necrotic cells at 20 uM after 24 hrs by annexin-V-FITC/propidium iodide staining based flow cytometry (reference value: 1.41 %). Format: functional.

In general, IC50 refers to the concentration that inhibits the measured activity by half. Turning to `CCCCCCCCCCCCCCCC[N+](C)(CCCCCCCCCCCCCCCC)CCNC(=O)[C@@]1(O)CC[C@H]2[C@@H]3CCC4=CC(=O)CC[C@]4(C)[C@H]3[C@@H](O)C[C@@]21C.[Cl-]`, the result with A549 [1], in the experiment with B16-F10 [2], with B16-F10 [3], with B16-F10 [8], in the experiment on B16-F10 [9] and in the experiment with B16-F10 [13] was Active. Moreover, the Activity in experiment [4] stood at 33.8%; in experiment [5], 9.6%; in [6] it was 41.4%; with A549 [16], 7.53%; in the experiment on A549 [17], 66.05%; in the experiment on B16-F10 [18] it was 32.41%. Further, in the experiment with B16-F10 [19], the Activity is given as 8.52%. Moreover, the inhibition entry in the experiment with B16-F10 [7], in the experiment on B16-F10 [10] and in the experiment on B16-F10 [11] was “Active” throughout. Besides, the Ratio in the experiment with B16-F10 [12] is recorded as 0.6. Also, the half-maximal inhibitory concentration (IC50) in the experiment on MCF7 is 3.7 µM; in experiment [14] it was 3.5 µM; with HeLa, 5.2 µM; in the experiment on RAW264.7 it was 18.4 µM; in experiment [15], 20 µM.
